Data taken from patent US7642277B2, “Non-nucleoside reverse transcriptase inhibitors” (Boehringer Ingelheim International GmbH, priority 2002, dated 2010).

Key:
[1] = tested on: HIV-1 (wild type) in C8166 LTRluc cells; test: C8166 HIV-1 luciferase assay (EC50), wild type; type: cell-based; details: Human immunodeficiency virus 1, C8166 HIV-1 luciferase assay (no *)
Description: (§1) C8166 HIV-1 Luciferase Assay (EC50)
(§2) Plasmid: pGL3 Basic LTR/TAR #12
Plasmid is the pGL3 Basic Vector (a promoterless luciferase expression vector from Promega catalogue #E1751) with the addition of HIV-1 H×B2 LTR sequence from nucleotide −138 to +80 (Sca1-HindIII) upstream of the luciferase gene and the gene for blasticidine resistance cloned in.
(§3) C8166 cells are a human T-lymphotrophic virus type 1 immortalized but nonexpressing line of cord blood lymphocytes and are highly permissive to HIV-1 infection. The reporter cells were made by electroporating C8166 cells with pGL3 Basic LTR/TAR and then selecting positive clones with blasticidine. The clone C8166-LTRluc #A8-F5-G7 was selected by 3 consecutive rounds of limiting dilution under blasticidine selection.
(§4) Media: Complete media consisting of: RPMI 1640+10% FBS+10^−5 M
(§5) β-mercaptoethanol+10 μg/ml gentamycin. Cultures are maintained in complete media with 5 μg/ml blasticidine, however, selection is removed for the assay.
(§6) Luciferase Assay Protocol
(§7) Serial dilutions of HIV-1 inhibitors compounds are prepared in complete media from 10 mM DMSO stock solutions. Eleven serial dilutions of 2.5× are made at 8× desired final concentration in a 1 ml deep well titer plate (96 wells). The 12th well contains complete media with no inhibitor and serves as the positive control. All samples contain the same concentration of DMSO (≦0.1% DMSO). A 25 μl aliquot of inhibitor is added, to triplicate wells, of a 96 well tissue culture treated clear view black microtiter plate (Corning Costar catalogue # 3904). The last row is reserved for uninfected C8166 LTRluc cells to serve as the background blank control and the first row is media alone.
(§8) Count C8166 LTRluc cells and place in a minimal volume of complete RPMI 1640 in a tissue culture flask (ex. 30×10^6 cells in 10 ml media/25 cm^2 flask). Infect cells with HIV-1 at a moi of 0.005. Incubate cells for 1.5 hours at 37° C. on a rotating rack in a 5% CO2 incubator. Resuspend cells in complete RPMI to give a final concentration of 25,000-cells/175 μl. Add 175 μl of cell mix to wells of 96 well microtiter plate containing 25 μl 8× inhibitors. Add 25,000 uninfected C8166-LTRluc cells/well in 200 μl complete RPMI to last row for background control. Incubate cells at 37° C. in 5% CO2 incubator for 3 days.
(§9) Add 50 μl Steady Glo (luciferase substrate T1/2=5 hours Promega catalogue # E2520) to each well of the 96 well plate. Determine the relative light units (RLU) of luciferase using the BMG LUMlstar Galaxy luminometer. Plates are read from the bottom for 2 seconds per well with a gain of 240.
(§10) The level of inhibition (% inhibition) of each well containing inhibitor was calculated with the following equation: […]
The calculated % inhibition values were then used to determine EC50, slope factor (n) and maximum inhibition (Imax) by the non-linear regression routine NLIN procedure of SAS using the following equation: […]
The results are listed in Table 9 as IC50(nM) and EC50 (nM).
(§11) Table legend: A=>100; B=100-50; C=<50; NT=not tested

[2] = target: T1, HIV-1 RT resistant mutant K103N/Y181C (Human immunodeficiency virus type 1 group M subtype B, UniProt P04585, K690N/Y768C); test: Reverse transcriptase (RT) enzymatic assay (IC50), PicoGreen fluorescence, resistant mutant; type: biochemical
T1 construct: The reverse transcriptase (RT) enzyme assay has been adapted to a 96-well microtiter plate format
Protocol: (§12) Reverse Transcriptase (RT) Assays Enzymatic Assay (IC50)
The enzymatic assay employed is described as follows: The reverse transcriptase (RT) enzyme assay has been adapted to a 96-well microtiter plate format and uses PicoGreen™ as a fluorescent intercalator. More explicitly, the HIV-1 RT enzyme was thawed and appropriately diluted into Tris/HCl 50 mM pH 7.8 containing NaCl 60 mM, MgCl2∘6H2O 2 mM, DTT 6 mM, GSH 2 mM and 0.02% w/v Chaps to give ≈10 nM enzyme. To 10 μL of this enzyme solution was added 10 μL of inhibitor solution (40 μM to […] inhibitor in the same assay buffer as above containing 4% v/v DMSO). The plate was pre-incubated for 15 minutes at room temperature before proceeding to the next step. In this pre-incubation step, the highest and lowest inhibitor concentrations were 20 μM and 1.016 nM respectively and the concentration of DMSO was 2% v/v. Then the enzymatic reaction was initiated by addition of 20 μL of substrate solution. The final reaction mixture contained Tris/HCl 50 mM pH 7.8, NaCl 60 mM, MgCl2∘6H2O 2 mM, DTT 6 mM, GSH 2 mM, CHAPS 0.02% w/v, DMSO 1% v/v, poly rC 45 nM, dG15 4.5 nM, dGTP 3.6 μM, and ≈2.5 nM enzyme. In this incubation step, the highest and lowest inhibitor concentrations were 10 μM and 0.508 nM respectively. After addition of the substrate cocktail, the plate was covered with a plastic seal and incubated for 50 minutes at 37° C. in a dry incubator. The reaction was then quenched by addition of 5 μL of EDTA 0.5 M. The plate was shaken for 30 seconds at medium speed and incubated for 5 minutes at room temperature. Then 160 μL of PicoGreen™ 1:400 dilution from commercial stock (diluted in Tris 20 mM pH 7.5 with EDTA 1 mM) was added and the plate was shaken for 30 seconds and incubated for 10 minutes at room temperature. The plate was then analyzed using a POLARstar Galaxy fluorimeter (BMG Labtechnologies) with λex and λem of 485 nm and 520 nm respectively. […] Each row contained at its extremities a blank and a control well.
as §11

[3] = tested on: HIV-1 resistant mutant K103N/Y181C in C8166 LTRluc cells; test: C8166 HIV-1 luciferase assay (EC50), resistant mutant; type: cell-based; details: Human immunodeficiency virus 1, C8166, read-out: EC50 K103N/Y181C
Description: as §1, §2, §3, §4, §5, §6
as §7, with “Eleven” for “Serial dilutions of HIV-1 inhibitors compounds are prepared in complete media from 10 mM DMSO stock solutions. Eleven”
as §8, with “Infect cells with HIV-1 at a moi of 0.005.” left out
as §9, §10
The calculated % inhibition values were then used to determine EC50, slope factor (n) and maximum inhibition (Imax) by the non-linear regression routine NLIN procedure of SAS using the following equation:
as §11

[4] = target: T2, HIV-1 RT enzyme (wild type) (Human immunodeficiency virus type 1 group M subtype B, UniProt P04585); test: Reverse transcriptase (RT) enzymatic assay (IC50), PicoGreen fluorescence, wild type; type: biochemical; details: RT enzymatic assay, wild type; read-out: IC50 WT
T2 construct: The reverse transcriptase (RT) enzyme assay has been adapted to a 96-well microtiter plate format
Protocol: as §12
The enzymatic assay employed is described as follows: The reverse transcriptase (RT) enzyme assay has been adapted to a 96-well microtiter plate format and uses PicoGreen™ as a fluorescent intercalator. More explicitly, the HIV-1 RT enzyme was thawed and appropriately diluted into Tris/HCl 50 mM pH 7.8 containing NaCl 60 mM, MgCl2∘6H2O 2 mM, DTT 6 mM, GSH 2 mM and 0.02% w/v Chaps to give ≈10 nM enzyme. […] The plate was pre-incubated for 15 minutes at room temperature before proceeding to the next step. […] Then the enzymatic reaction was initiated by addition of 20 μL of substrate solution. […] After addition of the substrate cocktail, the plate was covered with a plastic seal and incubated for 50 minutes at 37° C. in a dry incubator. The reaction was then quenched by addition of 5 μL of EDTA 0.5 M. The plate was shaken for 30 seconds at medium speed and incubated for 5 minutes at room temperature. Then 160 μL of PicoGreen™ 1:400 dilution from commercial stock (diluted in Tris 20 mM pH 7.5 with EDTA 1 mM) was added and the plate was shaken for 30 seconds and incubated for 10 minutes at room temperature. […] Each row contained at its extremities a blank and a control well.
as §11

Row | Structure (SMILES) | EC50 [1] | IC50 [2] | EC50 [3] | IC50 [4]
1 | CC(C)(C)c1ccc(-n2nnnc2SCC(=O)Nc2ccc(N3CCOCC3)cc2Cl)c(Cl)c1 [Entry 611] | < 50 nM | > 100 nM | > 100 nM | < 50 nM
2 | CC(C)(C)c1ccc(-n2nnnc2SCC(=O)Nc2ccc(N3CCCCC3)cc2Cl)c(Cl)c1 [Entry 613] | < 50 nM | > 100 nM | > 100 nM | < 50 nM
3 | CC(C)(C)c1ccc(-n2nnnc2SCC(=O)Nc2ccncc2Cl)c(Cl)c1 [Entry 801] | < 50 nM | < 50 nM | < 50 nM | < 50 nM
4 | Cc1ccc(-n2nnnc2SCC(=O)Nc2ccc(C(=O)O)cc2[N+](=O)[O-])c(Cl)c1 [Entry 507] | < 50 nM | > 100 nM | > 100 nM | < 50 nM
5 | CCN(CC)c1ccc(-n2nnnc2SCC(=O)Nc2ccccc2Cl)c(Cl)c1 [Entry 705] | < 50 nM | > 100 nM | > 100 nM | < 50 nM
6 | CC(C)CS(=O)(=O)c1ccc(NC(=O)CSc2nnnn2-c2ccc(C(C)(C)C)cc2Cl)c(Cl)c1 [Entry 608] | < 50 nM | > 100 nM | 50 to 100 nM | < 50 nM
7 | Cc1ccc(Cl)c(-n2nnnc2SCC(=O)Nc2ccccc2[N+](=O)[O-])c1 [Entry 145] | < 50 nM | > 100 nM | > 100 nM | < 50 nM
8 | Cc1ccc(-n2nnnc2SCC(=O)Nc2ccc(S(C)(=O)=O)cc2Cl)c(Cl)c1 [Entry 509] | < 50 nM | > 100 nM | > 100 nM | < 50 nM
9 | Cc1ccc(-n2nnnc2SCC(=O)Nc2ccc(C(N)=O)cc2Cl)c(Cl)c1 [Entry 504] | < 50 nM | > 100 nM | < 50 nM | < 50 nM
10 | Cc1nnc(SCC(=O)Nc2ccccc2Cl)n1-c1ccc(C(C)(C)C)cc1Cl [Entry 430] | < 50 nM | 50 to 100 nM | 50 to 100 nM | < 50 nM
11 | Cc1ccc(NC(=O)CSc2nnnn2-c2ccc(C(C)(C)C)cc2Cl)c(Cl)n1 [Entry 802] | < 50 nM | > 100 nM | 50 to 100 nM | < 50 nM
12 | O=C(CSc1nnnn1-c1ccc(I)cc1Cl)Nc1ccccc1Cl [Entry 706] | < 50 nM | > 100 nM | > 100 nM | < 50 nM
13 | CC(C)(C)c1ccc(-n2nnnc2SCC(=O)Nc2ccc([N+](=O)[O-])cc2Cl)c(Cl)c1 [Entry 602] | 50 to 100 nM | > 100 nM | > 100 nM | < 50 nM
14 | Cc1ccc(-n2nnnc2SCC(=O)Nc2ccc(-c3cccnc3)cc2Cl)c(Cl)c1 [Entry 512] | < 50 nM | > 100 nM | > 100 nM | < 50 nM
15 | Cc1cc(C(F)(F)F)cc(-n2nnnc2SCC(=O)Nc2ccc(S(N)(=O)=O)cc2Cl)c1Cl [Entry 703] | < 50 nM | 50 to 100 nM | < 50 nM | < 50 nM
16 | Cc1ccc(-c2ccccc2SCC(=O)Nc2ccccc2Cl)c(Cl)c1 [Entry 416] | < 50 nM | > 100 nM | > 100 nM | < 50 nM
17 | Cc1ccc(-n2nnnc2SCC(=O)Nc2ccc(C(=O)O)cc2Cl)c(Cl)c1 [Entry 503] | < 50 nM | > 100 nM | > 100 nM | < 50 nM
18 | Cc1nnc(SCC(=O)Nc2ccc(S(C)(=O)=O)cc2Cl)n1-c1ccc(C(C)(C)C)cc1Cl [Entry 431] | < 50 nM | 50 to 100 nM | < 50 nM | < 50 nM
19 | Cc1nnc(SCC(=O)Nc2ccccc2[N+](=O)[O-])n1-c1cccc2ccccc12 [Entry 403] | < 50 nM | > 100 nM | > 100 nM | < 50 nM
20 | Cc1ccc(-n2nnnc2SCC(=O)Nc2ccc(C(N)=O)cc2[N+](=O)[O-])c(Cl)c1 [Entry 508] | < 50 nM | 50 to 100 nM | < 50 nM | < 50 nM
21 | CC(C)S(=O)(=O)c1ccc(NC(=O)CSc2nnnn2-c2ccc(C(C)(C)C)cc2Cl)c(Cl)c1 [Entry 607] | < 50 nM | > 100 nM | 50 to 100 nM | < 50 nM
22 | Cc1ccc(-n2c(C)nnc2SCC(=O)Nc2ccc(-c3ccccc3)cc2Cl)c(Cl)c1 [Entry 428] | < 50 nM | > 100 nM | > 100 nM | –
